Measurements from publication PMC8638962, “Opposing Effects of PhoPQ and PmrAB on the Properties of Salmonella enterica serovar Typhimurium: Implications on Resistance to Antimicrobial Peptides” (Biochemistry, 2021).
Converted amounts (≈) assume the structure as drawn. Where a SMILES comes first, the peptide text is derived from it. Where no end group is shown, it is not given here. [ ]: non-standard residue; d: D form. The star is where a group is joined. Octanoyl = CCCCCCCC(=O)*

What was measured:
[1] = tested on: S. enterica serovar Typhimurium 14 028s PmrAB knockout; type: cell-based; conditions: broth microdilution, serial twofold dilution in MNMM, 18–20 h at 37 °C with agitation, read by visible turbidity
Protocol: (§1) The antimicrobial activity of the peptides was examined in sterile 96-wells plates (Nunc F96 microtiter plates) in a final volume of 100 μL as follows. Aliquots (50 μL) of an overnight suspension-containing bacteria (late-log phase diluted 1:5000) were added to 50 μL of modified N-minimal media (MNMM) containing the peptides in a serial twofold dilution, and antibiotics, if required, to select for the specific mutant. Inhibition of growth was determined by the visibility of turbidity in comparison to blank with no growth after an incubation of 18–20 h at 37 °C with agitation. Antibacterial activity was expressed as the minimal inhibitory concentration (MIC) in which no growth could be observed.
(§2) We investigated both natural and de novo-designed AMPs (Table 1). The list includes (i) the human cathelicidin LL-37, (ii) a de novo-designed 15-mer AMP designated K6L9 and (iii) its D,L-amino acid-containing analogue, D,L-K6L9, and (iv) D,L amino acid histidine derivative, D,L-H6L9, (v) a 12-mer D,L-K5L7 and (vi) its caprylic-acid-conjugated analogue C8-D,L-K5L7, and (vii) the frog antimicrobial peptide Temporin L.[23] These peptides have different net positive charges under the experimental conditions, as well as hydrophobicity (represented by RP-HPLC retention times), as indicated in Table 1. The peptides were tested for their antibacterial activity against WT S. enterica serovar Typhimurium ATCC 14028 (S. typhimurium) and its mutants (Table 2). The minimal inhibitory concentration (MIC) was defined using a broth microdilution antimicrobial assay. S. typhimurium have been widely used for the exploration of bacterial resistance acquired from these two TCSs.[52],[53]

[2] = tested on: S. enterica serovar Typhimurium 14 028s phoP and PmrAB knockout; type: cell-based; conditions: broth microdilution, serial twofold dilution in MNMM, 18–20 h at 37 °C with agitation, read by visible turbidity; phoP and PmrAB double knockout
Protocol: as §1, §2

[3] = tested on: S. enterica serovar Typhimurium 14 028s phoP knockout; type: cell-based; conditions: broth microdilution, serial twofold dilution in MNMM, 18–20 h at 37 °C with agitation, read by visible turbidity
Protocol: as §1, §2

[4] = tested on: S. enterica serovar Typhimurium 14 028s wild-type; type: cell-based; conditions: broth microdilution, serial twofold dilution in modified N-minimal media (MNMM), 18–20 h at 37 °C with agitation, read by visible turbidity; WT ATCC 14028
Protocol: as §1, §2

[5] = RP-HPLC retention as measure of hydrophobicity; type: physicochemical; conditions: C18 column, linear gradient 10–90% acetonitrile in water with 0.1% TFA in 40 min, 1.8 mL/min; for retention time: RP-HPLC retention time used as measure of hydrophobicity; for relative hydrophobicity (% ACN): percent of acetonitrile at the retention time, RP-HPLC
Excerpt: The peptides were synthesized by a solid phase method on a rink amide MBHA resin using an ABI 433A automatic peptide synthesizer (Applied Biosystems). The resin-bound peptides (0.1 mequiv each) were cleaved from the resins by trifluoroacetic acid (TFA), washed with dry ether, and extracted with acetonitrile/water (50% v/v). All peptides were amidated at their C terminus. The peptides were further purified by reverse-phase high-pressure liquid chromatography (RP-HPLC) on a C18 reverse-phase Bio-Rad column (250 × 10 mm^2, 300 Å pore size, 5 μm particle size). A linear gradient of 10–90% acetonitrile in water containing 0.1% TFA (v/v) in 40 min was used at a flow rate of 1.8 mL/min. […] Electrospray mass spectroscopy confirmed their identity.[23]
as §2

Compound	MIC, pmrAB-KO [1] [µM]	MIC, DKO [2] [µM]	MIC, phoP-KO [3] [µM]	MIC, WT [4] [µM]	retention time [5] [min]	relative hydrophobicity (% ACN) [5] [% ACN]
CCCCCCCC(=O)N[C@@H](CCCCN)C(=O)N[C@@H](CCCCN)C(=O)N[C@H](CC(C)C)C(=O)N[C@H](CC(C)C)C(=O)N[C@@H](CCCCN)C(=O)N[C@@H](CC(C)C)C(=O)N[C@@H](CC(C)C)C(=O)N[C@H](CC(C)C)C(=O)N[C@@H](CCCCN)C(=O)N[C@H](CC(C)C)C(=O)N[C@@H](CC(C)C)C(=O)N[C@@H](CCCCN)C(N)=O [C8-D,L-K5L7] (Octanoyl-KK[dL][dL]KLL[dL]K[dL]LK-NH2)	6.25 (≈ 9.85 µg/mL)	3.125 (≈ 4.93 µg/mL)	3.125 (≈ 4.93 µg/mL)	3.125 (≈ 4.93 µg/mL)	29.1	68.2
CC(C)C[C@H](NC(=O)[C@H](CC(C)C)NC(=O)[C@@H](Cc1c[nH]cn1)NC(=O)[C@H](CC(C)C)NC(=O)[C@H](CC(C)C)NC(=O)[C@H](Cc1c[nH]cn1)NC(=O)[C@@H](Cc1c[nH]cn1)NC(=O)[C@@H](CC(C)C)NC(=O)[C@H](CC(C)C)NC(=O)[C@@H](Cc1c[nH]cn1)NC(=O)[C@H](Cc1c[nH]cn1)NC(=O)[C@H](CC(C)C)NC(=O)[C@@H](CC(C)C)NC(=O)[C@H](Cc1c[nH]cn1)NC(=O)[C@@H](N)CC(C)C)C(N)=O [D,L-H6L9] (H-LH[dL]LH[dH]L[dL][dH]HLL[dH]LL-NH2; N-terminus assumed)	50 (≈ 92.9 µg/mL)	50 (≈ 92.9 µg/mL)	50 (≈ 92.9 µg/mL)	100 (≈ 186 µg/mL)	29.3	68.6
CC(C)C[C@H](NC(=O)[C@H](CCCCN)NC(=O)[C@@H](CC(C)C)NC(=O)[C@@H](CC(C)C)NC(=O)[C@H](CCCCN)NC(=O)[C@@H](N)CCCCN)C(=O)N[C@@H](CC(C)C)C(=O)N[C@H](CC(C)C)C(=O)N[C@@H](CCCCN)C(=O)N[C@H](CC(C)C)C(=O)N[C@@H](CC(C)C)C(=O)N[C@@H](CCCCN)C(N)=O [D,L-K5L7] (H-KK[dL][dL]KLL[dL]K[dL]LK-NH2; N-terminus assumed)	12.5 (≈ 18.1 µg/mL)	3.125 (≈ 4.53 µg/mL)	1.56 (≈ 2.26 µg/mL)	6.25 (≈ 9.06 µg/mL)	23.5	57
CC(C)C[C@H](NC(=O)[C@H](CC(C)C)NC(=O)[C@@H](CCCCN)NC(=O)[C@H](CC(C)C)NC(=O)[C@H](CC(C)C)NC(=O)[C@H](CCCCN)NC(=O)[C@@H](CCCCN)NC(=O)[C@@H](CC(C)C)NC(=O)[C@H](CC(C)C)NC(=O)[C@@H](CCCCN)NC(=O)[C@H](CCCCN)NC(=O)[C@H](CC(C)C)NC(=O)[C@@H](CC(C)C)NC(=O)[C@H](CCCCN)NC(=O)[C@@H](N)CC(C)C)C(N)=O [D,L-K6L9] (H-LK[dL]LK[dK]L[dL][dK]KLL[dK]LL-NH2; N-terminus assumed)	1.56 (≈ 2.82 µg/mL)	0.78 (≈ 1.41 µg/mL)	0.39 (≈ 0.704 µg/mL)	1.56 (≈ 2.82 µg/mL)	27.7	65.4
CC[C@H](C)[C@H](NC(=O)[C@H](CCCCN)NC(=O)[C@H](CCC(=O)O)NC(=O)[C@H](CCCCN)NC(=O)[C@H](CO)NC(=O)[C@H](CCCCN)NC(=O)[C@H](CCCNC(=N)N)NC(=O)[C@H](Cc1ccccc1)NC(=O)[C@H](Cc1ccccc1)NC(=O)[C@H](CC(=O)O)NC(=O)CNC(=O)[C@H](CC(C)C)NC(=O)[C@@H](N)CC(C)C)C(=O)NCC(=O)N[C@@H](CCCCN)C(=O)N[C@@H](CCC(=O)O)C(=O)N[C@@H](Cc1ccccc1)C(=O)N[C@@H](CCCCN)C(=O)N[C@@H](CCCNC(=N)N)C(=O)N[C@H](C(=O)N[C@H](C(=O)N[C@@H](CCC(N)=O)C(=O)N[C@@H](CCCNC(=N)N)C(=O)N[C@H](C(=O)N[C@@H](CCCCN)C(=O)N[C@@H](CC(=O)O)C(=O)N[C@@H](Cc1ccccc1)C(=O)N[C@@H](CC(C)C)C(=O)N[C@@H](CCCNC(=N)N)C(=O)N[C@@H](CC(N)=O)C(=O)N[C@@H](CC(C)C)C(=O)N[C@H](C(=O)N1CCC[C@H]1C(=O)N[C@@H](CCCNC(=N)N)C(=O)N[C@H](C(=O)N[C@@H](CCC(=O)O)C(=O)N[C@@H](CO)C(N)=O)[C@@H](C)O)C(C)C)[C@@H](C)CC)C(C)C)[C@@H](C)CC [LL-37, reference compound]	6.25 (≈ 28.1 µg/mL)	3.125 (≈ 14 µg/mL)	1.56 (≈ 7.01 µg/mL)	3.125 (≈ 14 µg/mL)		
FVQWFSKFLGRIL-NH2 [Temporin L, reference compound]	25	25	12.5	25		
LKLLKKLLKKLLKLL-NH2 [L-K6L9]	3.125	3.125	0.39	1.56		
